Reference: patent publication US8877946B2, “Benzylidene-indolinone compounds and their medical use” (National University of Singapore, priority 2011, dated 2014)

tested on: HuH7 cells; experiment: MTT antiproliferative (growth inhibition) assay on HuH7 cells; format: cell-based, human; conditions: Homo sapiens, Huh-7, MTT, 72 h incubation, mean and SD of 3 or more independent determinations (Tables 1-8), read-out: IC 50
From the text: MTT was purchased from DUCHEFA Biochemie ([…]). Sunitinib, and sodium dodecyl sulfate, bovine serum albuminwere obtained from Sigma Aldrich (Singapore). Sorafenib was purchase from Ontario Chem. Fetal bovine serum (FBS) was obtained from Invitrogen. Human hepatocellular carcinoma cells (HuH-7 and Hep G2), and human diploid fibroblast strain (IMR 90). HuH7 was obtained as gifts from Dr Ho Han Kiat, Department of Pharmacy, NUS. IMR90 and Hep G2 were purchased from American Type Culture Collection (ATCC). HuH-7 cells were cultured in DMEM (Dulbecco's Modified Eagle Medium, high glucose) with 10% v/v fetal bovine serum (FBS), 100 mg/L penicillin G and 100 mg/L streptomycin. IMR 90 cell were cultured in EMEM (Eagle's Minimum Essential Medium), with 10% v/v FBS and 100 mg/L penicillin G and 100 mg/L streptomycin. The cells were sub-cultured when HuH7 or Hep G2 reached a density of 70-80×10^5 cell/T75 flask, and IMR 90 reached 20×10^5 cell/T75 flask. Cells were used within 2-10 passages for viability experiments.
The anti-proliferative activity of the test compounds were determined by the MTT assay. An aliquot (200 μL, 3×10^4 cells/mL for HuH7, 3.75×10^4 cells/mL for Hep G2, and 2×10^4 cells/mL for IMR 90) of medium was added to each well of the microtitre plate. […] The existing medium was removed from each well and replaced by fresh medium (200 μL) containing a known concentration of test compound. The final concentration of DMSO in each well was maintained at 0.5% v/v. (1% v/v was also utilized if the compounds were not soluble) The test compounds were incubated with the cells for another 72 h at 37 deg C., 5% CO2. The medium was then removed from the well and replaced with FBS free medium (200 μL) and MTT (50 μL of 2 mg/mL solution in phosphate buffer saline, pH 7.4). The phosphate buffer saline comprises 10 mM of potassium phosphate and 137 mM sodium chloride. After incubation (3 h) at 37 deg C., 5% CO2, the supernatant was removed and a solution of 200 μL DMSO and 25 μL Sorenson buffer (0.1 M glycine, 0.1 M sodium chloride, adjusted to pH 10.5 with 0.1 M sodium hydroxide) was added to dissolve the formazan crystals in each well. Vehicle control were cells grown in 1% v/v DMSO/Medium for 72 h, 37 deg C., 5% CO2 while blank controls were wells that contained only 200 μL DMSO and 25 μL Sorenson buffer. Absorbances were measured at 570 nm on a microplate reader (Tecan, Infinite 200). The viability of cells at a given concentration of test compound was determined from the expression:
[formula] where abs_compound=absorbance of wells containing cells and test compound, abs_vehicle (Not the same as above. Change to abs_vehicle)=absorbance of vehicle control and abs_blank=absorbance of blank control.
Each concentration of test compound was evaluated at least 3 times on separate occasions, and two different stock solution were used. The IC50 value (concentration that inhibited 50% of cell growth) was determined from the sigmoidal curve obtained by plotting percentage viability versus logarithmic concentration of test compound using GraphPad Prism 5 (San Diego, USA).

SMILES	IC50 [µM]
O=C1Nc2ccc(F)cc2/C1=C\c1ccccc1F [Compound 4-2, (E)-5-Fluoro-3-(2-fluoro-benzylidene)-1,3-dihydro-indol-2-one]	> 30
O=C1Nc2ccc(F)cc2/C1=C\c1cccc(F)c1 [Compound 4-3, (E)-5-Fluoro-3-(3-fluoro-benzylidene)-1,3-dihydro-indol-2-one]	13.3 ± 2.31
O=C1Nc2ccc(F)cc2/C1=C\c1ccc(F)cc1 [Compound 4-4, (E)-5-Fluoro-3-(4-fluoro-benzylidene)-1,3-dihydro-indol-2-one]	13.2 ± 0.42
Cc1ccccc1/C=C1/C(=O)Nc2ccc(F)cc21 [Compound 4-5, (E)-5-Fluoro-3-(2-methyl-benzylidene)-1,3-dihydro-indol-2-one]	11.7 ± 1.1
Cc1cccc(/C=C2/C(=O)Nc3ccc(F)cc32)c1 [Compound 4-6, (E)-5-Fluoro-3-(3-methyl-benzylidene)-1,3-dihydro-indol-2-one]	> 30
Cc1ccc(/C=C2/C(=O)Nc3ccc(F)cc32)cc1 [Compound 4-7, (E)-5-Fluoro-3-(4-methyl-benzylidene)-1,3-dihydro-indol-2-one]	20.8 ± 4.02
COc1cccc(/C=C2/C(=O)Nc3ccc(F)cc32)c1 [Compound 4-8, (E)-5-Fluoro-3-(3-methoxy-benzylidene)-1,3-dihydro-indol-2-one]	16.4 ± 4.15
O=C1Nc2ccc(F)cc2/C1=C\c1ccccc1C(F)(F)F [Compound 4-9, (E)-5-Fluoro-3-(2-trifluoromethyl-benzylidene)-1,3-dihydro-indol-2-one]	> 30
O=C1Nc2ccc(F)cc2/C1=C\c1cccc(C(F)(F)F)c1 [Compound 4-10, (E)-5-Fluoro-3-(3-trifluoromethyl-benzylidene)-1,3-dihydro-indol-2-one, reference compound]	4.04 ± 0.54
O=C1Nc2ccc(F)cc2/C1=C\c1ccc(C(F)(F)F)cc1 [Compound 4-11, (E)-5-Fluoro-3-(4-trifluoromethylbenzylidene)-1,3-dihydro-indol-2-one]	9.31 ± 1.04
O=C1Nc2ccc(F)cc2/C1=C\c1ccc(F)c(F)c1 [Compound 4-12, (E)-3-(3,4-Difluoro-benzylidene)-5-fluoro-1,3-dihydro-indol-2-one]	15.3 ± 0.18
O=C1Nc2ccc(F)cc2/C1=C\c1cccc(OC(F)(F)F)c1 [Compound 4-13, (E)-5-Fluoro-3-(3-trifluoromethoxy-benzylidene)-1,3-dihydro-indol-2-one]	23.1 ± 4.75
CS(=O)(=O)c1cccc(/C=C2/C(=O)Nc3ccc(F)cc32)c1 [Compound 4-14, (E)-5-Fluoro-3-(3-methanesulfonyl-benzylidene)-1,3-dihydro-indol-2-one]	5.19 ± 0.63
N#Cc1cccc(/C=C2/C(=O)Nc3ccc(F)cc32)c1 [Compound 4-15, (E) 3-(5-Fluoro-2-oxo-1,2-dihydro-indol-3-ylidenemethyl)-benzonitrile]	7.36 ± 1.08
COc1ccc2c(c1)NC(=O)/C2=C/c1ccccc1 [Compound 5-1, (E)-3-Benzylidene-6-methoxy-1,3-dihydro-indol-2-one]	0.94 ± 0.19
COc1ccc2c(c1)NC(=O)/C2=C/c1ccccc1F [Compound 5-2, (E)-3-(2-Fluoro-benzylidene)-6-methoxy-1,3-dihydro-indol-2-one]	0.49 ± 0.05
COc1ccc2c(c1)NC(=O)/C2=C/c1cccc(F)c1 [Compound 5-3, (E)-3-(3-Fluoro-benzylidene)-6-methoxy-1,3-dihydro-indol-2-one]	0.71 ± 0.07
COc1ccc2c(c1)NC(=O)/C2=C/c1ccc(F)cc1 [Compound 5-4, (E)-3-(4-Fluorobenzylidene)-6-methoxy-1,3-dihydro-indol-2-one]	5.36 ± 0.14
COc1ccc2c(c1)NC(=O)/C2=C/c1ccccc1C(F)(F)F [Compound 5-5, (E) 6-Methoxy-3-(2-trifluoromethyl-benzylidene)-1,3-dihydro-indol-2-one]	7.04 ± 0.8
COc1ccc2c(c1)NC(=O)/C2=C/c1cccc(C(F)(F)F)c1 [Compound 5-6, (E)-6-Methoxy-3-(3-trifluoromethyl-benzylidene)-1,3-dihydro-indol-2-one, reference compound]	1.2 ± 0.05

SMILES	IC50 [µM]
COc1ccc2c(c1)NC(=O)/C2=C/c1ccc(C(F)(F)F)cc1 [Compound 5-7, (E)-6-Methoxy-3-(4-trifluoromethyl-benzylidene)-1,3-dihydro-indol-2-one]	> 30
CNS(=O)(=O)c1cccc(/C=C2/C(=O)Nc3cc(OC)ccc32)c1 [Compound 5-8, (E)-3-(6-Methoxy-2-oxo-1,2-dihydro-indol-3-ylidenemethyl)-N-methyl-benzenesulphonamide]	0.17 ± 0.02
O=C1Nc2ccc(F)c(F)c2/C1=C/c1ccccc1 [Compound 6-1, (Z)-3-Benzylidene-4,5-difluoro-1,3-dihydro-indol-2-one]	31.1 ± 2.12
O=C1Nc2ccc(F)c(F)c2/C1=C/c1ccccc1F [Compound 6-2, (Z)-4,5-Difluoro-3-(2-fluoro-benzylidene)-1,3-dihydro-indol-2-one]	16.9 ± 1.67
O=C1Nc2ccc(F)c(F)c2/C1=C/c1cccc(F)c1 [Compound 6-3, (Z)-4,5-Difluoro-3-(3-fluoro-benzylidene)-1,3-dihydro-indol-2-one]	15.9 ± 1.14
O=C1Nc2ccc(F)c(F)c2/C1=C/c1ccc(F)cc1 [Compound 6-4, (Z)-4,5-Difluoro-3-(4-fluoro-benzylidene)-1,3-dihydro-indol-2-one]	14 ± 0.73
O=C1Nc2ccc(F)c(F)c2/C1=C/c1ccc(C(F)(F)F)cc1 [Compound 6-7, (Z)-4,5-Difluoro-3-(4-trifluoromethyl-benzylidene)-1,3-dihydro-indol-2-one]	> 30
O=C1Nc2ccc(F)c(F)c2/C1=C/c1cccc(OC(F)(F)F)c1 [Compound 6-8, (Z)-4,5-Difluoro-3-(3-trifluoromethoxyl-benzylidene)-1,3-dihydro-indol-2-one]	2.94 ± 0.26
CNS(=O)(=O)c1cccc(/C=C2\C(=O)Nc3ccc(F)c(F)c32)c1 [Compound 6-10, (Z)-3-(4,5-Difluoro-2-oxo-1,2-dihydro-indol-3-ylidenemethyl)-N-methyl-benzenesulphonamide]	15.8 ± 3.37
O=C1Nc2cc(F)c(F)cc2/C1=C\c1ccccc1 [Compound 7-1, (E)-3-Benzylidene-5,6-difluoro-1,3-dihydro-indol-2-one]	> 30
O=C1Nc2cc(F)c(F)cc2/C1=C\c1ccccc1F [Compound 7-2, (E)-5,6-Difluoro-3-(2-fluoro-benzylidene)-1,3-dihydro-indol-2-one]	> 30
O=C1Nc2cc(F)c(F)cc2/C1=C\c1cccc(F)c1 [Compound 7-3, (E)-5,6-Difluoro-3-(3-fluorobenzylidene)-1,3-dihydro-indol-2-one]	19.2 ± 3.25
O=C1Nc2cc(F)c(F)cc2/C1=C\c1ccccc1C(F)(F)F [Compound 7-5, (E)-5,6-Difluoro-3-(2-trifluoromethyl-benzylidene)-1,3-dihydro-indol-2-one]	> 30
O=C1Nc2cc(F)c(F)cc2/C1=C\c1ccc(C(F)(F)F)cc1 [Compound 7-7, (E)-5,6-Difluoro-3-(4-(trifluoromethyl)benzylidene)-1,3-dihydro-indol-2-one]	10.6 ± 0.68
O=C1Nc2cc(F)c(F)cc2/C1=C\c1cccc(OC(F)(F)F)c1 [Compound 7-8, (E)-5,6-Difluoro-3-(3-trifluoromethoxyl-benzylidene)-1,3-dihydro-indol-2-one]	5.61 ± 0.26
CS(=O)(=O)c1cccc(/C=C2/C(=O)Nc3cc(F)c(F)cc32)c1 [Compound 7-9, (E)-5,6-Difluoro-3-(3-methanesulfonylbenzylidene)-1,3-dihydro-indol-2-one]	13.9 ± 2.03
CNS(=O)(=O)c1cccc(C=C2C(=O)Nc3cc(F)c(F)cc32)c1 [Compound 7-10]	2.76 ± 0.16
O=C1Nc2ccccc2/C1=C\c1cccc(C(F)(F)F)c1 [Compound 8-1, (E) 3-(3-Trifluoromethyl-benzylidene)-1,3-dihydro-indol-2-one]	5.56 ± 0.06
O=C1Nc2ccccc2C1=Nc1cccc(C(F)(F)F)c1 [Compound 8-2, (E/Z) 3-(3-Trifluoromethyl-phenylimino)-1,3-dihydro-indol-2-one]	> 30
